According to patent publication US11730712B2, “Functionalized long-chain hydrocarbon mono- and di-carboxylic acids and derivatives thereof, and their use for the prevention or treatment of disease” (ESPERVITA THERAPEUTICS, INC., priority 2021, dated 2023):
Several values for one entry are separate records, joined by “and”; a condition that tells them apart may be missing. Identical values can stand only once.

Key:
[1] = system: tumor cancer pathway gene panel; experiment: Nanostring nCounter Cancer panel gene expression in tumor of DEN-injected mice; format: in vivo, mouse; settings: 100 mg/kg, 4 weeks
Method: Nanostring Analysis. RNA was extracted from paired liver and tumor tissue from vehicle, Compound I-1 (100 mg/kg) and Compound I-32 (100 mg/kg) treated mice using an RNeasy kit (Qiagen, Calif., USA) as per manufacturer's protocol. All RNA samples passed the BioAnalyzer quality control test. The expression of target genes in liver and tumor were analyzed using the nCounter Fibrosis and Cancer Panel (NanoString Technologies, Inc., WA, USA), respectively according to manufacturer's protocol at the McMaster Genomics Facility. Technical and biological normalization against global geometric mean was performed in nSolver 4.0 software (NanoString Technologies). Technical normalization was performed in the nSolver software (version 4.0.70) by normalizing sample target raw counts to the geometric mean of positive control spike-ins. […] Pathway scores were calculated as the first principal component of the normalized expression values for all genes in each pathway and samples were compiled according to experimental groups to determine average pathway scores. Statistical significance was calculated between experimental groups using multiple t-tests and p-values were corrected for multiple comparisons using Benjamin-Hochberg false discovery rate. […]

[2] = system: bone marrow derived macrophages (BMDMs); experiment: LPS-induced glycolysis in bone marrow derived macrophages (Seahorse); format: cell-based; settings: BMDMs serum-starved 2 hours, LPS (10 ng/mL)+I-1 for 4 hours; Seahorse bioanalyzer
Method: Differentiated bone marrow derived macrophages were serum-starved for 2 hours then treated with vehicle (Control), LPS (10 ng/mL) or LPS+ACLYi (I-1) for 4 hours. Glycolytic rate was assessed using Seahorse bioanalyzer.

[3] = system: DEN-injected mice on high fat high fructose diet; experiment: NASH-HCC model by diethylnitrosamine (DEN) induction: tumors, ALT/AST, liver histology; format: in vivo, mouse; design: key to Fibrosis Score, individual mice: 1a: Mild (delicate) zone 3 perisinusoidal fibrosis, requires Masson's trichome stain to identify; 1b: Moderate(dense) zone 3 perisinusoidal fibrosis; 1c: Portal fibrosis only; NAFLD Activity Score, individual mice / NAFLD Activity Score, Avg: scale not given here; settings: 4 weeks; for Fibrosis Score, individual mice / NAFLD Activity Score, individual mice / No. of Surface Tumors, individual mice / NAFLD Activity Score, Avg / No. of Surface Tumors, Avg: 100 mg/kg daily oral gavage; for No. of Surface Tumors, individual mice: mice analyzed by Nanostring; for NAFLD Activity Score, Avg / No. of Surface Tumors, Avg: n=8; for liver fibrosis (trichrome stained livers): 100 mg/kg; for NAFLD activity scores (NAS) / liver inflammation scores / liver steatosis and ballooning scores: 30 and 100 mg/kg; for plasma ALT and AST levels: 30 or 100 mg/kg, dose-dependent
Method: Materials and Methods. All experiments were carried out using the guidelines approved by the Animal Research Ethics Board at McMaster University, Canada. Male mice obtained from Steinberg Lab Breeding Colony housed within the McMaster University Central Animal Facility were used for these experiments. The test agents were prepared by solubilizing them in a solution of sodium bicarbonate. Compound I-32 and Compound I-1 were administered at a dose of 30 or 100 mg/kg with a dosing volume of 10 ml/kg by daily oral gavage for 4 weeks. This route was selected because it simulates the oral administration route intended for use in human clinical studies and ensures the correct dose of compound is ingested by each animal. Data are expressed as means±the standard error of the mean. Statistical comparisons were carried out using a one-way analysis of variance followed by Dunnett's post hoc test using GraphPad Prism 8 software. A p-value of less than or equal to 0.05 will be used as the criterion of significance.
Experimental Protocol. At 2 weeks of age mice were injected with diethylnitrosamine (DEN) at 25 mg/kg body weight. After weaning mice were housed with littermates and fed a normal chow diet (Teklad 8640 22/5). […] After 7.5 months, mice were bled from the tail vein and plasma alpha-fetoprotein (AFP) levels were determined. AFP is a serum biomarker of HCC progression in humans and mice treated with DEN. At 8 months, mice were divided into 5 groups, based on mean AFP levels and then received a single daily dose of either vehicle (1.5% CMC and 0.2% Tween-20) or 30 mg/kg or 100 mg/kg of Compound I-32 or Compound I-1 via gavage. Throughout the experiments mice were housed in ventilated cage racks with ad libitum access to the food and water. An automatic timing device was used to maintain an alternating 12-hour cycle of light and dark.
After 4 weeks of daily treatments mice were anesthetized by I.P. injection of Ketamine/Xylazine (150 mg/12.4 mg/kg, respectively) in saline. When anesthetic plane has been achieved, 0.5 ml of blood was drawn by cardiac puncture, and plasma was isolated and frozen in liquid nitrogen. The liver was excised intact and rinsed briefly in PBS on ice. The liver was weighed, a photo was taken and the number of visible lesions on the surface of the liver was counted and recorded. A portion of tumor-free liver (˜200 mg, caudate lobe) and up to three individual tumors were removed, flash frozen in liquid nitrogen and stored for molecular analysis. The remainder of the liver was placed in 10% formalin, fixed for 48 hours, and stored in 70% ethanol until it was embedded in paraffin, sectioned, and mounted on slides for histological analysis.
AFP assay. Before starting the treatment, mice were bled from the tail vein and plasma alpha-fetoprotein (AFP) levels were determined using mouse alpha-Feto protein/AFP Duoset ELISA kit (R&D Systems, Inc., MN, USA) as recommended by the manufacturer. 100 μl sample (1:1000 in reagent diluent) was added on each well of 96-well plate coated with mouse AFP capture antibody. Next, the plates were washed with wash buffer and 100 μl detection antibody was added to each well, followed by the Streptavidin HRP and substrate solution. The reaction was stopped by stop solution and the optical density of each well was measured in a microplate reader set to 450 nm. After measuring AFP levels, mice were divided into five groups (>800 ng/ml) and treatment was initiated.
ALT/AST assay. Plasma Alanine Transaminase (ALT) and Aspartate Transaminase (AST) levels were determined using ALT (CAK1002, Cohesion Biosciences) and AST (CAK 1004, Cohesion Biosciences) activity kits following the manufacturer instructions. 10 μl of plasma sample was added with 50 μl of substrate in 96-well plate. The reaction was carried out for 30 minutes at 37° C., detected by dye reagent I and II and absorbance was measured at 520 nm. […]

Compound: CC(C)(CCCCc1ccc(CCCCC(C)(C)C(=O)O)cc1)C(=O)O [Compound I-1, 6-[4-(5-carboxy-5-methylhexyl)-phenyl]-2,2-dimethylhexanoic acid]
- effects on tumor gene expression pathways related to cancer progression and survival [1]: exerted pronounced effects on gene expression pathways related to cancer progression and survival
- LPS-induced glycolysis (glycolytic rate) [2]: suppression
- reduction of the number of surface tumors ([3]; 30 mg/kg and 100 mg/kg daily oral): over 70%
- Fibrosis Score, individual mice [3]: 1a (3×) and 1b (3×) and 1c (2×)
- NAFLD Activity Score, individual mice [3]: 4 (4×) and 6 (2×) and 3 and 2
- No. of Surface Tumors, individual mice [3]: 8 and 6 (2×) and 11 and 10 and 14 and 7 and 3
- NAFLD Activity Score, Avg [3]: 4.1
- No. of Surface Tumors, Avg [3]: 8.1
- liver fibrosis (trichrome stained livers) [3]: fibrosis was significantly reduced
- NAFLD activity scores (NAS) [3]: reduced NAFLD activity scores (NAS) at both 30 and 100 mg/kg
- liver inflammation scores [3]: without altering inflammation scores
- liver steatosis and ballooning scores [3]: dramatically reduced steatosis
- plasma ALT and AST levels [3]: significantly decreased

Compound: CC(C)(CCCCc1cccc(CCCCC(C)(C)C(=O)O)c1)C(=O)O [Compound I-32, 6-[3-(5-carboxy-5-methylhexyl)-phenyl]-2,2-dimethylhexanoic acid]
- Fibrosis Score, individual mice [3]: 1b (4×) and 1c and 1a (3×)
- NAFLD Activity Score, individual mice [3]: 2 and 5 and 4 (3×) and 6 and 3 and 1
- No. of Surface Tumors, individual mice [3]: 7 and 6 and 3 (2×) and 1 and 30 and 4 and 2
- NAFLD Activity Score, Avg [3]: 3.625
- No. of Surface Tumors, Avg [3]: 7
- liver fibrosis (trichrome stained livers) [3]: fibrosis was significantly reduced
- NAFLD activity scores (NAS) [3]: reduced NAFLD activity scores (NAS) at both 30 and 100 mg/kg
- liver inflammation scores [3]: without altering inflammation scores
- liver steatosis and ballooning scores [3]: dramatically reduced steatosis
- plasma ALT and AST levels [3]: significantly decreased
